In US20240327388A1, “QUINOLINAMINE COMPOUND, PREPARATION METHOD THEREFOR AND APPLICATION THEREOF IN PHARMACEUTICALS” (JIANGSU HENGRUI PHARMACEUTICALS CO., LTD., priority 2021, published 2024) one finds fold induction data, which are given here for 23 molecules.

This experiment has as its system miR-124. Kind of experiment: Up-regulation of miR-124 in CD3/CD28 antibody-activated T cells (SYBR green quantitative PCR). The experiment is classed as cell-based. As to conditions: T-cell, 72 h; activated human T cells, 1 μM compound, 3 days, relative to DMSO, U6 internal reference. The procedure: The effect of the compound on miR-124 expression levels was detected in CD3/CD28 antibody-activated T cells. After the activated T cells were treated with the compound, the total cellular RNA was extracted, the cDNA obtained from reverse transcription was used as a template, and quantification was performed by an SYBR green fluorescence quantitative PCR method using a specific miR-124 primer.
Isolation of T cells: Purchased human peripheral blood mononuclear cells (PBMCs) were counted, centrifuged, and washed once with a separation buffer (PBS, pH 7.4, containing 0.5% BSA and 2 mM EDTA), and the supernatant was discarded. The components were added in an amount of 40 μL of a buffer and 10 μL of pan T Cell Biotin-Antibody Cocktail per 1×10^7 cells, and the pellet was resuspended. The resulting suspension was mixed and incubated in a refrigerator at 4° C. for 5 min. After the incubation was completed, the components were added in an amount of 30 μL of a buffer and 20 μL of Pan T Cell MicroBeads Cocktail per 1×10^7 cells, and the resulting suspension was mixed and incubated in a refrigerator at 4° C. for 10 min. The separation column (LS column) was rinsed with 3 mL of a cell separation buffer in advance, loaded with the above cell suspension, and then repeatedly washed 3 times with 1 mL of the cell separation buffer. The effluent cell fluid was collected in a 15 mL centrifuge tube, thus giving the enriched T cells. The cells were counted and added at a density of 1×10^6 cells/mL to an RPMI1640 medium (complete medium) containing 10% FBS and 40) U/mL IL-2, and the resulting mixture was kept on ice for later use.
Activation of T cells: The corresponding Dynabead Human T-Activator CD3/CD28 for T Cell Expansion and Activation were added to a 1.5 mL centrifuge tube in an amount of 25 μL of the activated magnetic beads per 1×10^6 cells, which should be shaken on a shaker for about 30 s before aspiration. In the centrifuge tube, at a volume ratio of greater than 1:1, the activated magnetic beads were washed 3 times with a medium, and all the washing liquid was removed after the last washing. A complete medium with a volume equal to the starting volume was added to resuspend the activated magnetic beads. The washed activated magnetic beads were added to the cell resuspension, and the resulting mixture was well mixed. The cells were added to a six-well plate at 3 mL/well and incubated in a cell incubator at 37° C. with 5% CO2 for 2 days.
Compound treatment: A 20 mM compound stock solution was diluted to 200 μM with DMSO, and then diluted 4-fold to 50 μM (50)×) with a complete medium. The resulting mixture was well mixed for later use. 4-fold diluted DMSO (25% DMSO) was added to negative control wells. T cells were activated for two days and pipetted uniformly. The 1.5 mL centrifuge tube was mounted on a magnetic rack, and the activated magnetic beads were removed. The cell suspension was collected, and the cells were counted and then centrifuged at 300×g for 10 min to discard the supernatant. The cells were then resuspended to 1.02×10^6 cells/mL, and 980 μL of the cell suspension and 20 μL of the 50× compound were added to each 24-well plate, with the final concentration of the compound being 1 μM. The cells were placed in a cell incubator at 37° C. with 5% CO2 for another 3 days.
RNA extraction: T cells were collected by centrifugation at 1500 rpm for 3 min, washed once with PBS, and centrifuged again to discard the supernatant. The total cellular RNA was extracted using a microRNA extraction kit according to the package insert. 700 μL of a Trizol cell lysis buffer was added to the cell pellet, and the resulting mixture was pipetted uniformly and left at room temperature for 5 min. 140 μL of chloroform was added, and the resulting mixture was well mixed with shaking and left to stand at room temperature for 3 min. The chloroform-cell lysis buffer mixture was centrifuged at 12000×g and 4° C. for 15 min. […]
The fold induction is the signal under treatment as a multiple of the control signal. Lower therefore signals little rise in signal. As for `Clc1cccc2ccc(Nc3ccc4c(c3)CCO4)nc12` [Compound 3, 8-Chloro-N-(2,3-dihydrobenzofuran-5-yl)quinolin-2-amine], the fold induction at 1 µM was 5.2.
Under `Clc1cccc2ccc(Nc3ccc4c(c3)CCC4)nc12` [Compound 4, 8-Chloro-N-(2,3-dihydro-1H-inden-5-yl)quinolin-2-amine] stands 5.4.
In the case of `CC(=O)N1CCc2cc(Nc3ccc4cccc(Cl)c4n3)ccc21` [Compound 5, 1-(5-((8-Chloroquinolin-2-yl)amino)indolin-1-yl)ethan-1-one] it was 1.4; in that of `Clc1cccc2ccc(Nc3ccc4c(c3)OCCO4)nc12` [Compound 6, 8-Chloro-N-(2,3-dihydrobenzo[b][1,4]dioxin-6-yl)quinolin-2-amine], 2.7; in that of `Clc1cccc2ccc(Nc3ccc4c(c3)CCCC4)nc12` [Compound 7, 8-Chloro-N-(5,6,7,8-tetrahydronaphthalen-2-yl)quinolin-2-amine], 5.2.
Under `FC1(F)Oc2ccc(Nc3ccc4cccc(Cl)c4n3)cc2OC1(F)F` [Compound 8, 8-Chloro-N-(2,2,3,3-tetrafluoro-2,3-dihydrobenzo[b][1,4]dioxin-6-yl)quinolin-2-amine] stands 5.4; under `Clc1cccc2ccc(Nc3cnc4c(c3)OCO4)nc12` [Compound 9, N-(8-Chloroquinolin-2-yl)-[1,3]dioxolo[4,5-b]pyridin-6-amine], 2.4.
`Clc1cccc2ccc(Nc3ccc4c(c3)OCO4)nc12` [Compound 10, N-(Benzo[d][1,3]dioxol-5-yl)-8-chloroquinolin-2-amine] had a fold induction at 1 µM of 2.1.
Under `[2H]C1([2H])Oc2ccc(Nc3ccc4cccc(Cl)c4n3)cc2O1` [Compound 11, N-(Benzo[d][1,3]dioxol-5-yl-2,2-d2)-8-chloroquinolin-2-amine] stands 2.4.
Under `CC1(C)Oc2ccc(Nc3ccc4cccc(Cl)c4n3)cc2O1` [Compound 12, 8-Chloro-N-(2,2-dimethylbenzo[d][1,3]dioxol-5-yl)quinolin-2-amine] stands 1.8; under `CC1(C)Cc2cc(Nc3ccc4cccc(Cl)c4n3)ccc2O1` [Compound 13, 8-Chloro-N-(2,2-dimethyl-2,3-dihydrobenzofuran-5-yl)quinolin-2-amine], 2.8.
In the case of `FC1(F)Oc2ccc(Nc3ccc4c5c(cc(Cl)c4n3)CCC5)cc2O1` [Compound 14, 5-Chloro-N-(2,2-difluorobenzo[d][1,3]dioxol-5-yl)-8,9-dihydro-7H-cyclopenta[f]quinolin-3-amine] it was 1.5; in that of `Cc1ccc2ccc(Nc3ccc4c(c3)OC(F)(F)O4)nc2c1Cl` [Compound 15, 8-Chloro-N-(2,2-difluorobenzo[d][1,3]dioxol-5-yl)-7-methylquinolin-2-amine], 5.7.
In turn, `COc1ccc2ccc(Nc3ccc4c(c3)OC(F)(F)O4)nc2c1Cl` [Compound 16, 8-Chloro-N-(2,2-difluorobenzo[d][1,3]dioxol-5-yl)-7-methoxyquinolin-2-amine] showed a fold induction at 1 µM of 3.9.
`FC1(F)Oc2ccc(Nc3ccc4ccc(Cl)c(Cl)c4n3)cc2O1` [Compound 17, 7,8-Dichloro-N-(2,2-difluorobenzo[d][1,3]dioxol-5-yl)quinolin-2-amine] returned a fold induction at 1 µM of 5.9.
In the case of `Cc1cc(Cl)c2nc(Nc3ccc4c(c3)OC(F)(F)O4)ccc2c1` [Compound 18, 8-Chloro-N-(2,2-difluorobenzo[d][1,3]dioxol-5-yl)-6-methylquinolin-2-amine] it was 2.7; in that of `FC1(F)Oc2ccc(Nc3ccc4cc(Cl)cc(Cl)c4n3)cc2O1` [Compound 20, 6,8-Dichloro-N-(2,2-difluorobenzo[d][1,3]dioxol-5-yl)quinolin-2-amine], 5; in that of `O=C(O)[C@H]1O[C@@H](N(c2ccc3c(c2)OCO3)c2ccc3cccc(Cl)c3n2)[C@H](O)[C@@H](O)[C@@H]1O` [Compound 21, (2S,3S,4S,5R,6R)-6-(Benzo[d][1,3]dioxol-5-yl(8-chloroquinolin-2-yl)amino)-3,4,5-trihydroxytetrahydro-2H-pyran-2-carboxylic acid], 1.9.
For the molecule `O=C(O)[C@H]1O[C@@H](N(c2ccc3c(c2)OCCO3)c2ccc3cccc(Cl)c3n2)[C@H](O)[C@@H](O)[C@@H]1O` [Compound 22, (2S,3S,4S,5R,6R)-6-((8-Chloroquinolin-2-yl)(2,3-dihydrobenzo[b][1,4]dioxin-6-yl)amino)-3,4,5-trihydroxytetrahydro-2H-pyran-2-carboxylic acid], the fold induction at 1 µM turned out to be 1.7.
Under `Cc1ccc(Cl)c2nc(Nc3ccc4c(c3)OC(F)(F)O4)ccc12` [Compound 23, 8-Chloro-N-(2,2-difluorobenzo[d][1,3]dioxol-5-yl)-5-methylquinolin-2-amine] stands 2.3; under `COc1ccc(Cl)c2nc(Nc3ccc4c(c3)OC(F)(F)O4)ccc12` [Compound 24, 8-Chloro-N-(2,2-difluorobenzo[d][1,3]dioxol-5-yl)-5-methoxyquinolin-2-amine], 3; under `FC1(F)Oc2ccc(Nc3ccc4c(Cl)ccc(Cl)c4n3)cc2O1` [Compound 25, 5,8-Dichloro-N-(2,2-difluorobenzo[d][1,3]dioxol-5-yl)quinolin-2-amine], 6.7.
In the case of `N#Cc1cc(Cl)c2nc(Nc3ccc4c(c3)OC(F)(F)O4)ccc2c1` [Compound 26, 8-Chloro-2-((2,2-difluorobenzo[d][1,3]dioxol-5-yl)amino)quinoline-6-carbonitrile] it was 2.4.
